Literature values, collected in patent publication US5212175A, “Benzothiophenyl benzothiophenylalkyl-N-terminal amino hydroxy β-amino acid derivatives” (G. D. Searle & Co., priority 1991, dated 1993).
Square brackets hold non-standard residues; d marks the D form. Peptide text beside a SMILES is read from it. * marks the point of attachment. Sta = CC(C)C[C@H](N)[C@@H](O)CC(=O)O; Isovaleryl = CC(C)CC(=O)*

Experiments:
pepsin = settings: Umezawa et al, J. Antibiot. 1970
cathepsin D = settings: Umezawa et al, J. Antibiot. 1970
renin = settings: Umezawa et al, J. Antibiot. 1970
hog renin = settings: after the injection of hog renin into nephrectomized rats; Gross et al, Science 1971
[1] = stated in words as a disadvantage

CC(C)CC(=O)N[C@H](C(=O)N[C@H](C(=O)N[C@@H](CC(C)C)[C@@H](O)CC(=O)N[C@@H](C)C(=O)N[C@@H](CC(C)C)[C@@H](O)CC(=O)O)C(C)C)C(C)C [pepstatin] (Isovaleryl-VV[Sta]A[Sta]-OH)
inhibitor of pepsin (pepsin): inhibitor | inhibitor of cathepsin D (cathepsin D): inhibitor | inhibitor of renin (renin): inhibitor | reduce blood pressure in vivo (hog renin): reduce blood pressure | solubility [1]: low solubility
